Reference: patent publication US20210008161A1, “METHODS AND COMPOSITIONS FOR IMPROVED HOMOLOGY DIRECTED REPAIR” (CRISPR THERAPEUTICS AG, priority 2019, published 2021)

Tests used:
Type in all cases: cell-based, human
HEK293 T cells [1] = assay: GFP to BFP fluorescent reporter assay of HDR efficiency (AAVS1 locus)
Method: (§1) The effect of DNA PK inhibition by Nu7441 correction of a DSB by the NHEJ pathway (e.g., introduce an indel at the DSB site) or HDR pathway (e.g., introduce a gene mutation encoded by a homology donor at the DSB site) was assessed using the reporter system described in Example 1. In this case gene-editing was evaluated in HEK293 T cells expressing GFP in the AAVS1 locus. To introduce a gene edit that converts GFP to BFP, cells were electroporated with ribonucleoprotein (RNP) comprised of Cas9 and gRNA1 (GFP target sequence identified by SEQ ID NO: 9; sgRNA spacer sequence identified by SEQ ID NO: 10) or gRNA2 (GFP target sequence identified by SEQ ID NO: 11; sgRNA spacer identified by SEQ ID NO: 12) that targets the GFP gene encoded in the AAVS1 locus. The cells were also transfected with ssODNs that encoded the gene correction necessary to convert GFP to BFP and homology arms complimentary to the sequence upstream and downstream of the target gene cut site. The efficiency of HDR repair was determined by measuring the level of cell BFP fluorescence. The efficiency of cutting (indel information) was monitored by TIDE analysis.
Shown in FIGS. 2A-2B is a comparison of HDR editing efficiency for cells treated with Nu7441, SCR7, or RS-1. Shown in FIG. 2A are cells were electroporated with RNP comprising Cas9 and gRNA1 (GFP target sequence shown in SEQ ID NO: 9; sgRNA spacer sequence identified by SEQ ID NO: 10). 2×10^5 cells were edited with 1 μM Cas9 and 1.5 μM gRNA1. The cells were transfected with four different ssODNs. These included ssODN 1067 (SEQ ID NO: 29) and ssODN 1069 (SEQ ID NO: 31) that are complimentary to the DNA strand containing the PAM sequence and ssODN 1068 (SEQ ID NO: 30) and ssODN 1070 (SEQ ID NO: 32) that are complimentary to the DNA strand not containing the PAM sequence. Cells were edited with 100 μM ssODN. A concentrated stock solution of each inhibitor was prepared in DMSO and diluted to a final concentration of 2.5 μM Nu7441, 1.25 μM SCR7, or 10 μM RS-1. HDR efficiency was compared relative to treatment with DMSO alone or to treatment with RNP-only.
Shown in FIG. 2B are cells were electroporated with RNP comprising Cas9 and gRNA2 (GFP target sequence shown in SEQ ID NO: 11; sgRNA spacer sequence shown in SEQ ID NO: 12). The cells were transfected with four different ssODNs. These included ssODN 1061 (SEQ ID NO: 33) and ssODN 1063 (SEQ ID NO: 35) that are complimentary to the DNA strand containing the PAM sequence and ssODN 1062 (SEQ ID NO: 34) and ssODN 1064 (SEQ ID NO: 36) that are complimentary to the DNA strand not containing the PAM sequence.

HEK293 T cells [2] = assay: Indel formation at GFP gene in AAVS1 locus by TIDE analysis; conditions: regardless of ssODN or gRNA, compared to DMSO control, FIG. 2C-2D
Method: as §1
Shown in FIGS. 2C-2D is a measure of indel formation performed by TIDE analysis for the same edits that are described for FIGS. 2A-2B. […] Thus, the DNA PK inhibitor Nu7441 achieves reduced repair of a DSB by the NHEJ pathway when a homology donor is provided.

HEK293 T cells [3] = assay: HDR gene-editing at GSD1a locus with ssODN homology donors; conditions: for HDR efficiency: 1.25 μM SCR7 or 10 μM RS-1, FIG. 3
Method: 2×10^5 cells were edited with 1 μM Cas9 and 1.5 μM gRNA. The cells were transfected with two different ssODNs homology donors: 93-50 (SEQ ID NO: 39) or 25-100 (SEQ ID NO: 40). These two ssODN donors contain homology arms spanning both sides of the double-stranded break induced by the Cas9-guide and facilitate correction of a point mutation in the G6PC gene sequence by HDR. Cells were edited with 100 μM ssODN. The cells were treated with 2.5 μM Nu7441, 1.25 μM SCR7, or 10 μM RS-1 and the effect on HDR efficiency was evaluated.

HEK293 T cells [4] = assay: Gene correction by NHEJ repair at GSD1a locus with dsDNA donors; conditions: dsDNA donor 50-0 or 150-0, 2.5 μM Nu7441, 1.25 μM SCR7 or 10 μM RS-1, vs DMSO alone, FIG. 3
Method: The effect of Nu7441 treatment on gene correction by the NHEJ pathway was also evaluated. To do so, the cells were transfected with two different dsDNA donors: 50-0 (SEQ ID NO: 37) or 150-0 (SEQ ID NO: 38). Cells were edited with 1.5 μg dsDNA donor. These dsDNA donors, lacking homology arms, introduce a second 3′ splice site into exon 2 at the GSD1a locus when inserted into the cut site induced by the Cas9-guide complex by NHEJ repair. The cells were treated with 2.5 μM Nu7441, 1.25 μM SCR7, or 10 μM RS-1 and gene correction by NHEJ repair was evaluated. […] Treatment with SCR7 or RS-1 had no effect over DMSO alone.

[5] = gRNA1, ssODN 1067-1070, 2.5 μM Nu7441, 1.25 μM SCR7 or 10 μM RS-1, vs DMSO, FIG. 2A

SMILES: O=c1cc(N2CCOCC2)oc2c(-c3cccc4c3sc3ccccc34)cccc12 [Nu7441]
- HDR efficiency (HEK293 T cells [1]; [5]): improved
- HDR efficiency (HEK293 T cells [1]; gRNA2, ssODN 1061-1064, 2.5 μM Nu7441): improved
- indel formation at the DSB site (HEK293 T cells [2]): decreased
- fold increase in HDR efficiency (HEK293 T cells [3]; 2.5 μM Nu7441, over DMSO alone, FIG. 3): approximately 1.7 fold
- gene correction by NHEJ repair (HEK293 T cells [4]): substantial decrease

SMILES: O=C(Nc1ccc(Br)cc1)c1ccc(Br)c(S(=O)(=O)NCc2ccccc2)c1 [RS-1]
- HDR efficiency (HEK293 T cells [1]; [5]): no improvement
- indel formation at the DSB site (HEK293 T cells [2]): reduction
- HDR efficiency (HEK293 T cells [3]): no effect
- gene correction by NHEJ repair (HEK293 T cells [4]): no effect

SMILES: O=c1[nH]c(=S)[nH]c(N=Cc2ccccc2)c1N=Cc1ccccc1 [SCR7]
- HDR efficiency (HEK293 T cells [1]; [5]): no improvement
- indel formation at the DSB site (HEK293 T cells [2]): reduction
- HDR efficiency (HEK293 T cells [3]): no effect
- gene correction by NHEJ repair (HEK293 T cells [4]): no effect
